Laboratory results taken from patent EP0897720A1, “Droloxifene for prevention of breast cancer” (Pfizer Products Inc., priority 1997, dated 1999).

Experiments:
[1] = tested on: puberal, female sprague-Dawley rats; assay: Anti-uterotrophic effect (modified Dorfman Test); type: in vivo; conditions: 3 mg./kg./day by stomach tube, six times weekly over 21 days, 0.25% aqueous agar suspension
Description: The anti-uterotrophic effect was determined according to a modified "Dorfman Test" [R. I. Dorfman, Methods in Hormone Research II, p. […]

[2] = tested on: 7,12-dimethylbenz(a)anthraceneinduced mammary tumor; assay: Inhibitory effect on the mammary tumor (DMBA-induced tumor model); type: in vivo, female Sprague-Dawley rat (Hanover breed); conditions: 3 mg./kg./day by stomach tube, six times weekly over 28 days; control animals taken as 100%
Description: Twice weekly and on the 28th day of testing the number of animals was determined and the tumor surface (mm^2/animal) of the therapy animals and control animals was measured. At the end of testing, the percentage increase of the average tumor surface of the treated animals was determined in comparison to the control animals, the surface of the latter being taken as 100%.

[3] = tested on: epithelial cells of the uterus; conditions: stated as a known side-effect of earlier anti-estrogens; cited from earlier work

Compound | Uterine Weight compared to Controlled Animals [1] | Relative Increase of the Average Tumor Surface [2] | abnormal growth of uterine epithelial cells [3]
CC/C(=C(/c1ccc(OCCN(CC)CC)cc1)c1cccc(O)c1)c1ccccc1 [Compound 2] | -39% |  | 
CC/C(=C(/c1ccc(OCCN(C)C)cc1)c1cccc(O)c1)c1ccccc1 [Compound 1, 1-[4'-(2-dimethylaminoethoxy)phenyl]-1-(3'-hydroxyphenyl)-2-phenylbut-1-ene] | -42% | 23% | 
CC/C(=C(/c1ccc(OCCNC)cc1)c1cccc(O)c1)c1ccccc1 [Compound 3] | -53% |  | 
CC/C(=C(\c1ccccc1)c1ccc(OCCN(C)C)cc1)c1ccccc1 [Tamoxifen, reference compound] | -40% |  | causes abnormal growth of uterine epithelial cells
